{"source": "patent US8598114B2", "about": "“Antimicrobial compounds” (priority 2007, dated 2013)", "key": {"[1]": {"test_system": "trypsin", "assay": "in vitro", "format": "in vitro ADME", "conditions": "pH 8.6", "experimental": "Measurements and Calculation of Peptide Half-Life\nEach peptide was dissolved in a 0.1 M NH4HCO3 buffer (pH 6.5) to yield a final peptide concentration of 1 mg/ml. A trypsin solution was prepared by dissolving 1 mg of trypsin in 50 ml 0.1 M NH4HCO3 buffer (pH 8.2). For the stability determination, 250 μl freshly made trypsin solution and 250 μl peptide solution were incubated in 2 ml of 0.1 M NH4HCO3 buffer (pH 8.6) at 37° C. on a rocking table. Aliquots of 0.5 ml were sampled at different time intervals, diluted with 0.5 ml water:acetonitrile (60:40 v/v) containing 1% TFA and analysed by RP-HPLC as described above. Samples without trypsin addition taken at 0 h and after 20 h at 37° C. were used as negative controls. Integration of the peak area at 254 nm for samples taken during the first 5 hours of the assay was used to generate the τ1/2."}, "[2]": {"test_system": "E. coli", "assay": "Minimal inhibitory concentration (Example 6)", "format": "cell-based"}, "[3]": {"test_system": "S. aureus", "assay": "Minimal inhibitory concentration (Example 6)", "format": "cell-based"}, "[4]": {"test_system": "MRSA", "assay": "Minimal inhibitory concentration (Example 6)", "format": "cell-based"}, "[5]": {"test_system": "Str. pyogenes", "assay": "Minimal inhibitory concentration (Example 6)", "format": "cell-based"}}, "note": "Peptide text beside a SMILES is read from it. * marks the point of attachment. NHPhenethyl = c1ccc(CCN*)cc1"}
{"smiles": "N=C(N)NCCC[C@H](NC(=O)[C@H](Cc1ccc(-c2cccc3ccccc23)cc1)NC(=O)[C@@H](N)CCCNC(=N)N)C(=O)NCCc1ccccc1", "note": "[Compound 3]", "values": [{"measurement": "half-life at 0.1 mg/ml", "setting": "[1]; isolated enzyme trypsin", "result": 20, "unit": "h"}]}
{"smiles": "N=C(N)NCCC[C@H](NC(=O)[C@H](Cc1ccc(-c2ccc(-c3ccccc3)cc2)cc1)NC(=O)[C@@H](N)CCCNC(=N)N)C(=O)NCCc1ccccc1", "note": "[Compound 5]", "values": [{"measurement": "half-life at 0.1 mg/ml", "setting": "[1]", "result": "> 24", "unit": "h"}]}
{"smiles": "N=C(N)NCCC[C@H](NC(=O)[C@H](Cc1c[nH]c2ccccc12)NC(=O)[C@@H](N)CCCNC(=N)N)C(=O)NCCc1ccccc1", "note": "[Compound 6, reference compound] (H-Arg-Trp-Arg-NHPhenethyl)", "values": [{"measurement": "half-life at 0.1 mg/ml", "setting": "[1]; isolated enzyme trypsin", "result": 7, "unit": "h"}]}
{"smiles": "CC(C)(C)c1cc(C(C)(C)C)c2[nH]c(C(C)(C)C)c(C[C@H](NC(=O)[C@@H](N)CCCNC(=N)N)C(=O)N[C@@H](CCCNC(=N)N)C(=O)NCCc3ccccc3Br)c2c1", "note": "[—(CH2)2—(2-BrPh), H-Arg-Tbt-Arg-NH(CH)2(2-Br-phenyl)]", "values": [{"measurement": "Minimal inhibitory concentration E. coli", "setting": "[2]", "result": 6, "unit": "µg/mL"}, {"measurement": "Minimal inhibitory concentration S. aureus", "setting": "[3]", "result": 3, "unit": "µg/mL"}, {"measurement": "Minimal inhibitory concentration MRSA", "setting": "[4]", "result": 3, "unit": "µg/mL"}, {"measurement": "Minimal inhibitory concentration Str. pyogenes", "setting": "[5]", "result": 3, "unit": "µg/mL"}]}
